Data reported in ChEMBL document CHEMBL1909294, “Translating clinical findings into knowledge in drug safety evaluation--drug induced liver injury prediction system (DILIps)” (PLoS Comput Biol, 2011).

Columns and labels:
Hepatotoxicity [1] = test system: Hepatotoxicity;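 for HepSE Combined Scores: combined hepatic side effect score as listed in the training data of the Drug Induced Liver Injury Prediction System (DILIps)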;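 for HepSE cholecystitis: Cholecystitis-related hepatic side effect score drawn from the DILIps (drug-induced liver injury prediction) training data set; call rule not given here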;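 for HepSE cholelithiasis: hepatic side effect score for cholelithiasis, drawn from the DILIps training data for predicting drug-induced liver injury; call rule not given here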;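 for HepSE elevated liver function tests: hepatic side effect score for raised liver function tests, as recorded in the DILIps training set used for predicting drug-induced liver injury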;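 for HepSE hepatitis: Hepatitis-related hepatic side effect score taken from the training data of DILIps, a prediction system for drug-induced liver injury; call rule not given here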;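 for HepSE liver function tests abnormal: hepatic side effect score taken from the DILIps (drug-induced liver injury prediction system) training data, here covering abnormal liver function test findings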
Hepatotoxicity [2] = test system: Hepatotoxicity; remark: listed apart in the source;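 for HepSE Combined Scores: combined hepatic side effect score as listed in the training data of the Drug Induced Liver Injury Prediction System (DILIps)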;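 for HepSE cholecystitis: Cholecystitis-related hepatic side effect score drawn from the DILIps (drug-induced liver injury prediction) training data set; call rule not given here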;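 for HepSE cholelithiasis: hepatic side effect score for cholelithiasis, drawn from the DILIps training data for predicting drug-induced liver injury; call rule not given here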;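 for HepSE elevated liver function tests: hepatic side effect score for raised liver function tests, as recorded in the DILIps training set used for predicting drug-induced liver injury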;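 for HepSE hepatitis: Hepatitis-related hepatic side effect score taken from the training data of DILIps, a prediction system for drug-induced liver injury; call rule not given here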;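 for HepSE liver function tests abnormal: hepatic side effect score taken from the DILIps (drug-induced liver injury prediction system) training data, here covering abnormal liver function test findings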
Hepatotoxicity [3] = test system: Hepatotoxicity; remark: listed apart in the source;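 for HepSE cholecystitis: Cholecystitis-related hepatic side effect score drawn from the DILIps (drug-induced liver injury prediction) training data set; call rule not given here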;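 for HepSE cholelithiasis: hepatic side effect score for cholelithiasis, drawn from the DILIps training data for predicting drug-induced liver injury; call rule not given here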;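 for HepSE elevated liver function tests: hepatic side effect score for raised liver function tests, as recorded in the DILIps training set used for predicting drug-induced liver injury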;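 for HepSE hepatitis: Hepatitis-related hepatic side effect score taken from the training data of DILIps, a prediction system for drug-induced liver injury; call rule not given here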;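 for HepSE liver function tests abnormal: hepatic side effect score taken from the DILIps (drug-induced liver injury prediction system) training data, here covering abnormal liver function test findings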
Hepatotoxicity [4] = test system: Hepatotoxicity; remark: listed apart in the source;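 for HepSE cholecystitis: Cholecystitis-related hepatic side effect score drawn from the DILIps (drug-induced liver injury prediction) training data set; call rule not given here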;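 for HepSE cholelithiasis: hepatic side effect score for cholelithiasis, drawn from the DILIps training data for predicting drug-induced liver injury; call rule not given here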;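 for HepSE elevated liver function tests: hepatic side effect score for raised liver function tests, as recorded in the DILIps training set used for predicting drug-induced liver injury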;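 for HepSE hepatitis: Hepatitis-related hepatic side effect score taken from the training data of DILIps, a prediction system for drug-induced liver injury; call rule not given here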;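 for HepSE liver function tests abnormal: hepatic side effect score taken from the DILIps (drug-induced liver injury prediction system) training data, here covering abnormal liver function test findings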
Hepatotoxicity [5] = test system: Hepatotoxicity; remark: listed apart in the source
Hepatotoxicity [6] = test system: Hepatotoxicity; remark: listed apart in the source
Hepatotoxicity [7] = test system: Hepatotoxicity; remark: listed apart in the source
Hepatotoxicity [8] = test system: Hepatotoxicity; remark: listed apart in the source
Hepatotoxicity [9] = test system: Hepatotoxicity; remark: listed apart in the source
Hepatotoxicity [10] = test system: Hepatotoxicity; remark: listed apart in the source
Hepatotoxicity [11] = test system: Hepatotoxicity; remark: listed apart in the source
Hepatotoxicity [12] = test system: Hepatotoxicity; remark: listed apart in the source
Hepatotoxicity [13] = test system: Hepatotoxicity; remark: listed apart in the source
Hepatotoxicity [14] = test system: Hepatotoxicity; remark: listed apart in the source

| SMILES | HepSE_hepatitis (Hepatotoxicity [1]) | HepSE_cholelithiasis (Hepatotoxicity [2]) | HepSE_bilirubinemia (Hepatotoxicity [3]) | HepSE_cholecystitis (Hepatotoxicity [4]) | HepSE_liver function tests abnormal (Hepatotoxicity [5]) | HepSE_elevated liver function tests (Hepatotoxicity [6]) | HepSE_Combined Scores (Hepatotoxicity [7]) | HepSE_hepatomegaly (Hepatotoxicity [8]) | HepSE_liver fatty (Hepatotoxicity [9]) | HepSE_jaundice (Hepatotoxicity [10]) | HepSE_hepatic necrosis (Hepatotoxicity [11]) | HepSE_hepatic failure (Hepatotoxicity [12]) | HepSE_liver disease (Hepatotoxicity [13]) | HepSE_cirrhosis (Hepatotoxicity [14]) | further results |
| --- | --- | --- | --- | --- | --- | --- | --- | --- | --- | --- | --- | --- | --- | --- | --- |
| O=C(c1ccccc1)c1ccc2n1CCC2C(=O)O (configuration not stated) [KETOROLAC] | 1 | 0 | 0 | 0 | 0 | 0 | 3 | 0 | 0 | 1 | 0 | 1 | 0 | 0 | – |
| Cc1cccc(C)c1OCC(C)N (configuration not stated) [MEXILETINE] | – | – | – | – | – | – | – | – | – | – | – | – | – | – | HepSE_hepatitis (Hepatotoxicity [1]; Liver): 1; HepSE_cholelithiasis (Hepatotoxicity [2]; Liver): 0; HepSE_bilirubinemia (Hepatotoxicity [3]; Liver): 0; HepSE_cholecystitis (Hepatotoxicity [4]; Liver): 0; HepSE_liver function tests abnormal (Hepatotoxicity [5]; Liver): 1; HepSE_elevated liver function tests (Hepatotoxicity [6]; Liver): 0; HepSE_Combined Scores (Hepatotoxicity [7]; Liver): 3; HepSE_hepatomegaly (Hepatotoxicity [8]; Liver): 0; HepSE_liver fatty (Hepatotoxicity [9]; Liver): 0; HepSE_jaundice (Hepatotoxicity [10]; Liver): 0; HepSE_hepatic necrosis (Hepatotoxicity [11]; Liver): 1; HepSE_hepatic failure (Hepatotoxicity [12]; Liver): 0; HepSE_liver disease (Hepatotoxicity [13]; Liver): 0; HepSE_cirrhosis (Hepatotoxicity [14]; Liver): 0 |
| CS(=O)(=O)c1ccc(C2=C(c3ccccc3)C(=O)OC2)cc1 [ROFECOXIB] | 1 | 0 | 0 | 1 | 0 | 0 | 4 | 0 | 0 | 1 | 0 | 1 | 0 | 0 | – |
| O=c1n(CCCN2CCN(c3cccc(Cl)c3)CC2)nc2ccccn12 [TRAZODONE] | 0 | 0 | 1 | 0 | 0 | 0 | 2 | 0 | 0 | 1 | 0 | 0 | 0 | 0 | – |
| C[C@]12CCC(=O)C=C1CC[C@@H]1[C@@H]2[C@@H](O)C[C@@]2(C)[C@H]1CC[C@]2(O)C(=O)CO [HYDROCORTISONE] | 0 | 0 | 0 | 0 | 0 | 0 | 1 | 1 | 0 | 0 | 0 | 0 | 0 | 0 | – |
| CCCCCN(C)CCC(O)(P(=O)(O)O)P(=O)(O)O [IBANDRONIC ACID] | 0 | 0 | 0 | 0 | 0 | 0 | 0 | 0 | 0 | 0 | 0 | 0 | 0 | 0 | – |
| CNC1(C)C2CCC(C2)C1(C)C (configuration not stated) [MECAMYLAMINE] | 0 | 0 | 0 | 0 | 0 | 0 | 0 | 0 | 0 | 0 | 0 | 0 | 0 | 0 | – |
| CC(C)C(=O)OCC(=O)[C@@]12O[C@H](C3CCCCC3)O[C@@H]1C[C@H]1[C@@H]3CCC4=CC(=O)C=C[C@]4(C)[C@H]3[C@@H](O)C[C@@]12C [CICLESONIDE] | 0 | 0 | 0 | 0 | 0 | 0 | 0 | 0 | 0 | 0 | 0 | 0 | 0 | 0 | – |
| O=C1CN2Cc3c(ccc(Cl)c3Cl)N=C2N1 [ANAGRELIDE] | 0 | 0 | 0 | 0 | 0 | 1 | 1 | 0 | 0 | 0 | 0 | 0 | 0 | 0 | – |
| COc1cc2nc(N3CCN(C(=O)c4ccco4)CC3)nc(N)c2cc1OC [PRAZOSIN] | 0 | 0 | 0 | 0 | 0 | 0 | 0 | 0 | 0 | 0 | 0 | 0 | 0 | 0 | – |
| CN1CCC(=C2c3ccccc3CC(=O)c3sccc32)CC1 [KETOTIFEN] | 1 | 0 | 0 | 0 | 0 | 0 | 1 | 0 | 0 | 0 | 0 | 0 | 0 | 0 | – |
| CCc1ccc(CCOc2ccc(CC3SC(=O)NC3=O)cc2)nc1 (configuration not stated) [PIOGLITAZONE] | 1 | 0 | 0 | 0 | 1 | 0 | 3 | 0 | 0 | 0 | 0 | 1 | 0 | 0 | – |
| CCC1(c2ccccc2)NC(=O)N(C)C1=O (configuration not stated) [MEPHENYTOIN] | 1 | 0 | 0 | 0 | 0 | 0 | 2 | 0 | 0 | 1 | 0 | 0 | 0 | 0 | – |
